From patent publication US20120142715A1, “POLYMORPH OF [4,6-BIS(DIMETHYLAMINO)-2-(4-BENZYL)PYRIMIDIN-5-YL]” (BOEHRINGER INGELHEIM INTERNATIONAL GMBH, priority 2009, published 2012)
Where a name gives a salt, the structure may show the parent alone.

Experiments:
[1] = DSC and TGA thermal events / weight loss at elevated temperature; format: physicochemical
Protocol: Weight loss at elevated temperature: Differences in thermal characteristics between the Type I and Type II ethylenediamine salts were also observed using differential scanning calorimetry (DSC), thermal gravimetric analysis (TGA) and dynamic vapor sorption (DVS) studies.
DSC and TGA thermograms of the Type II ethylenediamine salt (FIG. 4) indicate minimal loss of residual solvent up to 100° C. (about 0.16% which is controllable by more thorough drying). […] A first endothermic peak appears at about 192° C. with about 5.6% of total weight loss in TGA at corresponding temperature region (140° C. to 210° C.). This weight loss corresponds roughly to the theoretical weight loss (5.99 wt %) of ethylenediamine from the ethylenediamine salt of the compound of formula (I) (which contains 0.50 molar equivalents of ethylenediamine). […] The following endothermic peak is shown at 232° C. which is similar to the melting point of the free-acid form of the compound of formula (I).
There is about 3.8% weight loss at 20° C. to 70° C., which corresponds to the loss of water. A major endotherm at 118° C. to 134° C. corresponds to the melting of the ethylenediamine salt with volatilization, corresponding to the loss of ethanol and some ethylenediamine (about 4.4%). Further loss of ethylenediamine occurs at about 147° C. to 160° C. Above 165° C., melting and decomposition of the free-acid of the compound of formula (I) take place.
DSC was carried out using TA Instruments Q1000 Differential Scanning Calorimeter. Samples were placed in sealed aluminum pans for analysis with an empty aluminum pan as the reference. A heating rate of 10° C./min was employed over a temperature range from 20° C. to 300° C.
TGA was carried out using TA Instruments Q500 Thermogravimetric analyzer. Samples were placed into an platinum sample pan. A heating rate of 10° C./min was employed over a temperature range from 25° C. to 300° C.

[2] = Dynamic vapor sorption (water sorption/desorption); format: physicochemical; conditions: for hygroscopicity (in words): DVS; for moisture gain / water uptake: 85% relative humidity
Protocol: Water sorption/desorption profiles: Water sorption/desorption profiles of the Type II ethylenediamine salt are shown in FIG. 6. […] A similar water sorption/desorption study was carried out on the Type I ethylenediamine salt (FIG. 7). […] The sorption of water caused a form change in the Type I ethylenediamine salt which was observed using XRPD analysis.
Vapor sorption/desorption was carried out using Surface Measurement Systems DVS-HT. Samples were placed into a foil insert placed on a sample pan. […] The equilibrium point of each step was reached when 0.002% of weight change was reached.

[3] = XRPD analysis of crystallinity after heat-treatment; format: physicochemical; conditions: for change in crystallinity (XRPD) as a result of heat treatment: heated at 80° C. under reduced pressure for 15 hours, vs sample kept at about 25° and atmospheric pressure
Protocol: Effect of heat-treatment on crystallinity: Applicants carried out an XRPD analysis of samples of the Type I and Type II ethylenediamine salts exposed to elevated temperature (80° C.), and the results are shown in FIG. 3. In FIG. 3, the top pattern A-1 was obtained on a sample of the Type II ethylenediamine salt maintained at atmospheric pressure and at about 25° prior to measuring the XRPD reflections. The pattern A-2 was obtained from a sample of the Type II ethylenediamine salt which was heated at 80° C. under reduced pressure for 15 hours prior to measuring the XRPD reflections.
The bottom pattern B-1 was obtained on a sample of the Type I ethylenediamine salt which was maintained at atmospheric pressure and at about 25° prior to measuring the XRPD reflections. The pattern B-2 was obtained from a sample of the Type I ethylenediamine salt which was heated at 80° C. under reduced pressure for 15 hours prior to measuring the XRPD reflections.
XRPD data were recorded with a Rigaku Miniflex II powder diffractometer (The Woodlands, Tex.). The radiation was CuKa (30 kV, 15 mA). Data were collected at 25° C. from 3 to 35 degrees 2θ at 0.02 degrees per step and 1.67 sec per step. Samples were prepared on Silicon (510) specimen holders as a thin layer of powdered material without solvent.

[4] = cited from earlier work

Compound | total weight loss in TGA (loss of ethylenediamine) ([1]; 140° C. to 210° C., first endothermic peak at about 192° C.) | Onset of event: Melting and loss of ethylenediame ([1]; DSC/TGA, 10° C./min) [°C] | Onset of event: Melting of the free-acid of compound of formula (I) ([1]; DSC/TGA, 10° C./min) [°C] | loss of residual solvent (TGA) ([1]; up to 100° C.) | proneness to hydration compared with the other polymorph [2] | hygroscopicity (in words) ([2]; 25° C.) | moisture gain / water uptake ([2]; 25° C.) | thermal stability compared with the other polymorph (XRPD study) ([3]; 80° C. heat treatment) | change in crystallinity (XRPD) as a result of heat treatment [3] | thermal behavior in DSC and TGA thermograms [1] | weight loss (loss of water) ([1]; 20° C. to 70° C.) | Onset of event: Loss of water ([1]; DSC/TGA, 10° C./min) [°C] | Onset of event: Melting and loss of ethanol and ethylenediamine ([1]; DSC/TGA, 10° C./min) [°C] | weight loss (loss of ethanol and some ethylenediamine) ([1]; major endotherm at 118° C. to 134° C.) | water uptake ([2]; 70% relative humidity, 25° C.) [%] | effect of water sorption on solid form (XRPD) ([2]; after sorption of water) | weight loss in thermogravimetric analysis (attributed to loss of ethanol) ([4]; from 125° C. to 150° C.) | weight loss in thermogravimetric analysis ([4]; from about 30° C. to about 75° C.)
CN(C)c1nc(Cc2ccc(NC(=O)c3ccc(C(F)(F)F)cc3)cc2)nc(N(C)C)c1CC(=O)O [Type II ethylenediamine salt, ethylenediamine salt of [4,6-bis(dimethylamino)-2-(4-{[4-(trifluoromethyl)benzoyl]amino}benzyl)pyrimidin-5-yl]acetic acid] | about 5.6% | 160 | 225 | about 0.16% | less prone to hydration | non-hygroscopic | about 0.08% | more thermally stable | no noticeable change in the crystallinity | – | – | – | – | – | – | – | – | –
CN(C)c1nc(Cc2ccc(NC(=O)c3ccc(C(F)(F)F)cc3)cc2)nc(N(C)C)c1CC(=O)O [Type I ethylenediamine salt, ethylenediamine salt of [4,6-bis(dimethylamino)-2-(4-{[4-(trifluoromethyl)benzoyl]amino}benzyl)pyrimidin-5-yl]acetic acid] | – | – | 210 | – | – | significant moisture sorption | ~7% | – | significant change in the crystallinity | unstable thermal behavior | about 3.8% | 30 | 120 | about 4.4% | ~6 | form change | larger weight loss | slight weight loss
